Where two headings read alike, the source gives them in different places.
Experiments:
ducksalad = experiment: Test B flooded paddy test; format: in vivo, Heteranthera limosa; details: Heteranthera limosa, 336 h, 1000 g ai/ha, visual rating, scale 0 to 100 (0 no effect, 100 complete control), 13 to 15 days, read-out: Ducksalad plant response rating
Summary of the method: (§1)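 Scale 0–100: zero equals no visible effect, 100 complete control, judged by eye relative to controls. Timing: 13 to 15 days in greenhouse post-treatment. Growth stage at spraying: two leaves (paddy) or one to four leaves, 2–18 cm (postemergence).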

rice = experiment: Test B flooded paddy test; format: in vivo, Oryza sativa; details: Oryza sativa, 336 h, 1000 g ai/ha, visual rating, scale 0 to 100 (0 no effect, 100 complete control), 13 to 15 days, read-out: Rice plant response rating
Summary of the method: as §1

giant foxtail = experiment: Test B pre-/postemergence herbicide test; format: in vivo, Setaria faberi; details: Setaria faberi, 336 h; for pest or weed control at 125 g/ha: 125 g ai/ha; for pest or weed control at 500 g/ha: 500 g ai/ha
Summary of the method: (§2)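 Formulation: non-phytotoxic solvent mix with surfactant. Timing: preemergence on seed and postemergence on 2–18 cm plants, applied concurrently. Readout after 13–15 d greenhouse: visual 0–100 control rating against controls.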

cocklebur = experiment: Test B pre-/postemergence herbicide test; format: in vivo, Xanthium strumarium; details: Xanthium strumarium; for pest or weed control at 125 g/ha: 125 g ai/ha; for pest or weed control at 500 g/ha: 500 g ai/ha
Summary of the method: as §2

velvetleaf = experiment: Test B pre-/postemergence herbicide test; format: in vivo, Abutilon theophrasti; details: Abutilon theophrasti, 336 h; for pest or weed control at 125 g/ha: 125 g ai/ha; for pest or weed control at 500 g/ha: 500 g ai/ha
Summary of the method: as §2

lambsquarters = experiment: Test B pre-/postemergence herbicide test; format: in vivo, Chenopodium album; details: Chenopodium album, 336 h; for pest or weed control at 125 g/ha: 125 g ai/ha; for pest or weed control at 500 g/ha: 500 g ai/ha
Summary of the method: as §2

corn = experiment: Test B pre-/postemergence herbicide test; format: in vivo, Zea mays; details: Zea mays; for plant injury at 125 g/ha: 125 g ai/ha
Summary of the method: as §2

morningglory = experiment: Test B pre-/postemergence herbicide test; format: in vivo, Ipomoea coccinea; details: Ipomoea, 336 h, visual rating; for pest or weed control at 500 g/ha: 500 g ai/ha
Summary of the method: as §2

[1] = test system: small flower umbrella sedge; experiment: Test B flooded paddy test; format: in vivo, Cyperus difformis; details: Cyperus difformis, 336 h, 1000 g ai/ha, visual rating, scale 0 to 100 (0 no effect, 100 complete control), 13 to 15 days, read-out: Sedge, Umbrella plant response rating
Summary of the method: as §1

pigweed = experiment: Test B pre-/postemergence herbicide test; format: in vivo, Amaranthus retroflexus; details: Amaranthus retroflexus, 336 h; for pest or weed control at 125 g/ha: 125 g ai/ha; for pest or weed control at 500 g/ha: 500 g ai/ha
Summary of the method: as §2

barnyardgrass [2] = experiment: Test B flooded paddy test; format: in vivo, Echinochloa crus-galli; details: Echinochloa crus-galli, 336 h, 1000 g ai/ha, visual rating, scale 0 to 100 (0 no effect, 100 complete control), 13 to 15 days, read-out: Barnyardgrass plant response rating
Summary of the method: as §1

blackgrass = experiment: Test B postemergence herbicide test; format: in vivo, Alopecurus myosuroides; details: Alopecurus myosuroides, post-emergence, 336 h, postemergence, visual rating, scale 0 (no effect) to 100 (complete control), read-out: Blackgrass plant response rating
Summary of the method: as §1

wild oat = experiment: Test B postemergence herbicide test; format: in vivo, Avena fatua; details: Avena fatua, post-emergence, 336 h, postemergence, visual rating, scale 0 (no effect) to 100 (complete control), read-out: Oat, Wild plant response rating
Summary of the method: (§3)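 Each value is a visual 0–100 response rating taken against controls 13 to 15 days after treatment in the greenhouse. Plants received formulated chemical postemergence at the 1- to 4-leaf stage or, in flooded paddy, at the 2-leaf stage.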

barnyardgrass [3] = experiment: Test B pre-/postemergence herbicide test; format: in vivo, Echinochloa crus-galli; details: Echinochloa crus-galli; for pest or weed control at 125 g/ha: 125 g ai/ha; for pest or weed control at 500 g/ha: 500 g ai/ha
Summary of the method: as §2

wheat = experiment: Test B postemergence herbicide test; format: in vivo, Triticum aestivum; details: Triticum aestivum, post-emergence, 336 h, postemergence, visual rating, scale 0 (no effect) to 100 (complete control), read-out: Wheat plant response rating
Summary of the method: as §3

[4] = post-emergence, postemergence, visual rating, scale 0 (no effect) to 100 (complete control), read-out: Foxtail, Giant plant response rating
[5] = post-emergence, postemergence, visual rating, scale 0 (no effect) to 100 (complete control), read-out: Cocklebur plant response rating
[6] = post-emergence, postemergence, visual rating, scale 0 (no effect) to 100 (complete control), read-out: Velvetleaf plant response rating
[7] = post-emergence, postemergence, visual rating, scale 0 (no effect) to 100 (complete control), read-out: Lambsquarters plant response rating
[8] = post-emergence, postemergence, visual rating, scale 0 (no effect) to 100 (complete control), read-out: Pigweed plant response rating
[9] = post-emergence, postemergence, visual rating, scale 0 (no effect) to 100 (complete control), read-out: Barnyardgrass plant response rating

CCc1nn(C(C)(C)C)cc1C(=O)Nc1cc(C(=O)N(C)C)ccc1F [Compound 222, N-[5-[(dimethylamino)carbonyl]-2-fluorophenyl]-1-(1,1-dimethylethyl)-3-ethyl-1H-pyrazole-4-carboxamide]
20%: pest or weed control at 125 g/ha (cocklebur; [5]) | plant injury at 500 g/ha (corn; post-emergence, postemergence, 500 g ai/ha, visual rating, scale 0 (no effect) to 100 (complete control), read-out: Corn plant response rating) | pest or weed control at 500 g/ha (blackgrass; 500 g ai/ha) | pest or weed control at 500 g/ha (wild oat; 500 g ai/ha) | pest or weed control at 500 g/ha (barnyardgrass [3]; [9]) | plant injury at 500 g/ha (wheat; 500 g ai/ha)
50%: pest or weed control at 125 g/ha (velvetleaf; [6]) | pest or weed control at 125 g/ha (lambsquarters; [7])
80%: pest or weed control at 1000 g/ha (ducksalad) | pest or weed control at 500 g/ha (cocklebur; pre-emergence, visual rating, 0 = no effect, 100 = complete control, read-out: Plant response rating, Cocklebur) | pest or weed control at 500 g/ha (morningglory; post-emergence, postemergence, scale 0 (no effect) to 100 (complete control), read-out: Morningglory plant response rating)
60%: pest or weed control at 125 g/ha (giant foxtail; pre-emergence, 0 = no effect, 100 = complete control, read-out: Foxtail, Giant plant response rating (0 to 100 scale)) | pest or weed control at 500 g/ha (cocklebur; [5]) | pest or weed control at 500 g/ha (velvetleaf; [6]) | plant injury at 125 g/ha (corn; pre-emergence, 0 = no effect, 100 = complete control, read-out: Corn plant response rating (0 to 100 scale)) | pest or weed control at 500 g/ha (pigweed; [8])
40%: pest or weed control at 125 g/ha (morningglory; post-emergence, postemergence, 125 g ai/ha, scale 0 (no effect) to 100 (complete control), read-out: Morningglory plant response rating) | pest or weed control at 125 g/ha (pigweed; [8])
70%: pest or weed control at 500 g/ha (lambsquarters; [7]) | pest or weed control at 1000 g/ha [1]
90%: plant injury at 1000 g/ha (rice) | pest or weed control at 500 g/ha (giant foxtail; pre-emergence, visual rating, 0 = no effect, 100 = complete control, read-out: Plant response rating, Foxtail, Giant) | Corn plant response rating (crop injury, 0 = no effect, 100 = complete kill) at 500 g/ha (corn; pre-emergence, 500 g ai/ha, visual rating, 0 = no effect, 100 = complete control) | pest or weed control at 125 g/ha (pigweed; pre-emergence, 0 = no effect, 100 = complete control, read-out: Pigweed plant response rating (0 to 100 scale)) | pest or weed control at 1000 g/ha (barnyardgrass [2]) | pest or weed control at 125 g/ha (barnyardgrass [3]; pre-emergence, 0 = no effect, 100 = complete control, read-out: Barnyardgrass plant response rating (0 to 100 scale))
100%: pest or weed control at 125 g/ha (velvetleaf; pre-emergence, 0 = no effect, 100 = complete control, read-out: Velvetleaf plant response rating (0 to 100 scale)) | pest or weed control at 500 g/ha (velvetleaf; pre-emergence, visual rating, 0 = no effect, 100 = complete control, read-out: Plant response rating, Velvetleaf) | pest or weed control at 125 g/ha (lambsquarters; pre-emergence, 0 = no effect, 100 = complete control, read-out: Lambsquarters plant response rating (0 to 100 scale)) | pest or weed control at 500 g/ha (lambsquarters; pre-emergence, visual rating, 0 = no effect, 100 = complete control, read-out: Plant response rating, Lambsquarters) | pest or weed control at 500 g/ha (morningglory; pre-emergence, 0 = no effect, 100 = complete control, read-out: Plant response rating, Morningglory) | pest or weed control at 500 g/ha (pigweed; pre-emergence, visual rating, 0 = no effect, 100 = complete control, read-out: Plant response rating, Pigweed) | pest or weed control at 500 g/ha (barnyardgrass [3]; pre-emergence, visual rating, 0 = no effect, 100 = complete control, read-out: Plant response rating, Barnyardgrass)
10%: pest or weed control at 125 g/ha (giant foxtail; [4]) | pest or weed control at 125 g/ha (barnyardgrass [3]; [9])
0%: plant injury at 125 g/ha (corn; post-emergence, postemergence, visual rating, scale 0 (no effect) to 100 (complete control), read-out: Corn plant response rating) | pest or weed control at 125 g/ha (blackgrass; 125 g ai/ha) | pest or weed control at 125 g/ha (wild oat; 125 g ai/ha) | plant injury at 125 g/ha (wheat; 125 g ai/ha)
30%: pest or weed control at 500 g/ha (giant foxtail; [4]) | pest or weed control at 125 g/ha (cocklebur; pre-emergence, 0 = no effect, 100 = complete control, read-out: Cocklebur plant response rating (0 to 100 scale))
